ChEMBL document CHEMBL4765305, “Elephantopinolide A-P, germacrane-type sesquiterpene lactones from Elephantopus scaber induce apoptosis, autophagy and G2/M phase arrest in hepatocellular carcinoma cells” (Eur J Med Chem, 2020)
The source made the active and inactive calls. The rule behind the calls is not given here.

Tests used:
HepG2 [1] = assay: Anti-hepatoma activity against human HepG2 cells assessed as cell growth inhibition by MTT assay; type: functional, cell-based
Hep 3B2 [2] = assay: Anti-hepatoma activity against human Hep3B cells assessed as cell growth inhibition by MTT assay; type: functional, cell-based
Hep 3B2 [3] = assay: Induction of autophagy in human Hep3B cells at 6 uM by MDC staining based flow cytometry analysis (reference value: 3.52%); type: functional
Hep 3B2 [4] = assay: Induction of autophagy in human Hep3B cells at 3 uM by MDC staining based flow cytometry analysis (reference value: 3.52%); type: functional
HepG2 [5] = assay: Induction of apoptosis in human HepG2 cells assessed as cell shrinkage upto 9 uM incubated for 48 hrs by phase contrast microscopy; type: functional, cell-based; details: dose microM <=9, time 48.0 hrs
Hep 3B2 [6] = assay: Induction of apoptosis in human Hep3B cells assessed as cell shrinkage upto 9 uM incubated for 48 hrs by phase contrast microscopy; type: functional, cell-based; details: dose microM <=9, time 48.0 hrs
HepG2 [7] = assay: Induction of apoptosis in human HepG2 cells assessed as membrane blebbing upto 9 uM incubated for 48 hrs by phase contrast microscopy; type: functional, cell-based; details: dose microM <=9, time 48.0 hrs
Hep 3B2 [8] = assay: Induction of apoptosis in human Hep3B cells assessed as membrane blebbing upto 9 uM incubated for 48 hrs by phase contrast microscopy; type: functional, cell-based; details: dose microM <=9, time 48.0 hrs
HepG2 [9] = assay: Induction of apoptosis in human HepG2 cells assessed as nuclear condensation at 3 to 9 uM incubated for 48 hrs by Hoechst 33258 staining based fluorescence microscopy analysis; type: functional, cell-based; details: dose 3-9 µM
Hep 3B2 [10] = assay: Induction of apoptosis in human Hep3B cells assessed as nuclear condensation at 3 to 9 uM incubated for 48 hrs by Hoechst 33258 staining based fluorescence microscopy analysis; type: functional, cell-based; details: dose 3-9 µM
HepG2 [11] = assay: Induction of apoptosis in human HepG2 cells assessed as nuclear fragmentation at 3 to 9 uM incubated for 48 hrs by Hoechst 33258 staining based fluorescence microscopy analysis; type: functional, cell-based; details: dose 3-9 µM
Hep 3B2 [12] = assay: Induction of apoptosis in human Hep3B cells assessed as nuclear fragmentation at 3 to 9 uM incubated for 48 hrs by Hoechst 33258 staining based fluorescence microscopy analysis; type: functional, cell-based; details: dose 3-9 µM
Hep 3B2 [13] = assay: Induction of apoptosis in human Hep3B cells assessed as early apoptotic cells at 3 uM incubated for 48 hrs by AnnexinV-FITC and propidium iodide staining based flow cytometry analysis (reference value: 3.05%); type: functional
Hep 3B2 [14] = assay: Induction of apoptosis in human Hep3B cells assessed as early apoptotic cells at 6 uM incubated for 48 hrs by AnnexinV-FITC and propidium iodide staining based flow cytometry analysis (reference value: 3.05%); type: functional
Hep 3B2 [15] = assay: Induction of apoptosis in human Hep3B cells assessed as early apoptotic cells at 9 uM incubated for 48 hrs by AnnexinV-FITC and propidium iodide staining based flow cytometry analysis (reference value: 3.05%); type: functional
Hep 3B2 [16] = assay: Induction of apoptosis in human Hep3B cells assessed as late apoptotic cells at 3 uM incubated for 48 hrs by AnnexinV-FITC and propidium iodide staining based flow cytometry analysis (reference value: 3.32%); type: functional
Hep 3B2 [17] = assay: Induction of apoptosis in human Hep3B cells assessed as late apoptotic cells at 6 uM incubated for 48 hrs by AnnexinV-FITC and propidium iodide staining based flow cytometry analysis (reference value: 3.32%); type: functional
Hep 3B2 [18] = assay: Induction of apoptosis in human Hep3B cells assessed as late apoptotic cells at 9 uM incubated for 48 hrs by AnnexinV-FITC and propidium iodide staining based flow cytometry analysis (reference value: 3.32%); type: functional
HepG2 [19] = assay: Induction of apoptosis in human HepG2 cells assessed as early apoptotic cells at 3 uM incubated for 48 hrs by AnnexinV-FITC and propidium iodide staining based flow cytometry analysis (reference value: 2.45%); type: functional
HepG2 [20] = assay: Induction of apoptosis in human HepG2 cells assessed as early apoptotic cells at 6 uM incubated for 48 hrs by AnnexinV-FITC and propidium iodide staining based flow cytometry analysis (reference value: 2.45%); type: functional
HepG2 [21] = assay: Induction of apoptosis in human HepG2 cells assessed as early apoptotic cells at 9 uM incubated for 48 hrs by AnnexinV-FITC and propidium iodide staining based flow cytometry analysis (reference value: 2.45%); type: functional
HepG2 [22] = assay: Induction of apoptosis in human HepG2 cells assessed as late apoptotic cells at 3 uM incubated for 48 hrs by AnnexinV-FITC and propidium iodide staining based flow cytometry analysis (reference value: 2.46%); type: functional
HepG2 [23] = assay: Induction of apoptosis in human HepG2 cells assessed as late apoptotic cells at 6 uM incubated for 48 hrs by AnnexinV-FITC and propidium iodide staining based flow cytometry analysis (reference value: 2.46%); type: functional
HepG2 [24] = assay: Induction of apoptosis in human HepG2 cells assessed as late apoptotic cells at 9 uM incubated for 48 hrs by AnnexinV-FITC and propidium iodide staining based flow cytometry analysis (reference value: 2.46%); type: functional
HepG2 [25] = assay: Induction of apoptosis in human HepG2 cells assessed as increase in caspase-3 activity measured after 2 hrs by microplate reader; type: functional, cell-based; details: dose 3-9 µM
Hep 3B2 [26] = assay: Induction of apoptosis in human Hep3B cells assessed as increase in caspase-3 activity measured after 2 hrs by microplate reader; type: functional, cell-based; details: dose 3-9 µM
HepG2 [27] = assay: Induction of apoptosis in human HepG2 cells assessed as increase in cleaved caspase-3 activity measured by western blot analysis; type: functional, cell-based; details: dose 3-9 µM
HepG2 [28] = assay: Induction of apoptosis in human HepG2 cells assessed as increase in FADD level measured by western blot analysis; type: functional, cell-based; details: dose 3-9 µM
HepG2 [29] = assay: Induction of apoptosis in human HepG2 cells assessed as decrease in PARP level at 3 to 9 uM measured by western blot analysis; type: functional, cell-based; details: dose 3-9 µM
HepG2 [30] = assay: Induction of apoptosis in human HepG2 cells assessed as decrease in Bcl-2 level measured by western blot analysis; type: functional, cell-based; details: dose 3-9 µM
HepG2 [31] = assay: Induction of apoptosis in human HepG2 cells assessed as increase in Bax level at 3 to 9 uM measured by western blot analysis; type: functional, cell-based; details: dose 3-9 µM
Hep 3B2 [32] = assay: Induction ROS generation in human Hep3B cells assessed as intracellular ROS level measured after 4 hrs by H2DCF-DA probe based flow cytometry (reference value: 4.24 %); type: functional
Hep 3B2 [33] = assay: Induction ROS generation in human Hep3B cells assessed as intracellular ROS level measured after 2 hrs by H2DCF-DA probe based flow cytometry (reference value: 4.24 %); type: functional
Hep 3B2 [34] = assay: Induction ROS generation in human Hep3B cells assessed as intracellular ROS level measured after 1 hrs by H2DCF-DA probe based flow cytometry (reference value: 4.24 %); type: functional
Hep 3B2 [35] = assay: Induction ROS generation in human Hep3B cells assessed as intracellular ROS level measured after 30 mins by H2DCF-DA probe based flow cytometry (reference value: 4.24 %); type: functional; details: 0.5 h
Hep 3B2 [36] = assay: Induction ROS generation in human Hep3B cells assessed as intracellular ROS level measured after 15 mins by H2DCF-DA probe based flow cytometry (reference value: 4.24 %); type: functional; details: 0.25 h
Hep 3B2 [37] = assay: Induction of mitochondrial membrane potential loss in human Hep3B cells measured after 48 hrs by JC-1 staining based flow cytometry analysis; type: functional, cell-based; details: dose 3-9 µM
HepG2 [38] = assay: Induction ROS generation in human HepG2 cells assessed as intracellular ROS level measured after 4 hrs by H2DCF-DA probe based flow cytometry (reference value: 5.05%); type: functional
HepG2 [39] = assay: Induction ROS generation in human HepG2 cells assessed as intracellular ROS level measured after 2 hrs by H2DCF-DA probe based flow cytometry (reference value: 5.05%); type: functional
HepG2 [40] = assay: Induction of mitochondrial membrane potential loss in human HepG2 cells measured after 48 hrs by JC-1 staining based flow cytometry analysis; type: functional, cell-based; details: dose 3-9 µM
HepG2 [41] = assay: Induction ROS generation in human HepG2 cells assessed as intracellular ROS level measured after 1 hrs by H2DCF-DA probe based flow cytometry (reference value: 5.05%); type: functional
HepG2 [42] = assay: Induction ROS generation in human HepG2 cells assessed as intracellular ROS level measured after 30 mins by H2DCF-DA probe based flow cytometry (reference value: 5.05%); type: functional; details: 0.5 h
HepG2 [43] = assay: Induction ROS generation in human HepG2 cells assessed as intracellular ROS level measured after 15 mins by H2DCF-DA probe based flow cytometry (reference value: 5.05%); type: functional; details: 0.25 h
Hep 3B2 [44] = assay: Induction of autophagy in human Hep3B cells at 9 uM by MDC staining based flow cytometry analysis (reference value: 3.52%); type: functional
HepG2 [45] = assay: Induction of autophagy in human HepG2 cells at 3 uM by MDC staining based flow cytometry analysis (reference value: 4.46%); type: functional
HepG2 [46] = assay: Induction of autophagy in human HepG2 cells at 6 uM by MDC staining based flow cytometry analysis (reference value: 4.46%); type: functional
HepG2 [47] = assay: Induction of autophagy in human HepG2 cells at 9 uM by MDC staining based flow cytometry analysis (reference value: 4.46%); type: functional
HepG2 [48] = assay: Induction of cell cycle arrest in human HepG2 cells assessed as accumulation at G2/M phase by PI-staining based flow cytometric analysis; type: functional
Hep 3B2 [49] = assay: Induction of cell cycle arrest in human Hep3B cells assessed as accumulation at G2/M phase by PI-staining based flow cytometric analysis; type: functional
HepG2 [50] = assay: Activation of ERK phosphorylation in human HepG2 cells by Western blot analysis; type: cell-based; details: filed as activator, dose 3-9 µM
HepG2 [51] = assay: Activation of p-38 phosphorylation in human HepG2 cells by Western blot analysis; type: cell-based; details: filed as activator, dose 3-9 µM
HepG2 [52] = assay: Activation of JNK phosphorylation in human HepG2 cells by Western blot analysis; type: cell-based; details: filed as activator, dose 3-9 µM

SMILES: C/C=C(/C)C(=O)O[C@H]1CC2=C[C@@H](C/C(C)=C/[C@H]3OC(=O)C(CO)=C13)OC2=O
- IC50 (HepG2 [1]): > 20 µM
- IC50 (Hep 3B2 [2]): > 20 µM

SMILES: C=C(C)C(=O)O[C@H]1CC2=C[C@@H](C[C@@]3(C)O[C@H]3[C@H]3OC(=O)C(=C)[C@@H]31)OC2=O
- Activity (Hep 3B2 [3]): 39.2%
- Activity (Hep 3B2 [4]): 15.7%
- IC50 (HepG2 [1]): 2.83 µM
- IC50 (Hep 3B2 [2]): 1.98 µM
- Activity (HepG2 [5]): Active
- Activity (Hep 3B2 [6]): Active
- Activity (HepG2 [7]): Active
- Activity (Hep 3B2 [8]): Active
- Activity (HepG2 [9]): Active
- Activity (Hep 3B2 [10]): Active
- Activity (HepG2 [11]): Active
- Activity (Hep 3B2 [12]): Active
- Activity (Hep 3B2 [13]): 5.14%
- Activity (Hep 3B2 [14]): 18.2%
- Activity (Hep 3B2 [15]): 15.5%
- Activity (Hep 3B2 [16]): 5.56%
- Activity (Hep 3B2 [17]): 11.9%
- Activity (Hep 3B2 [18]): 31.9%
- Activity (HepG2 [19]): 14.9%
- Activity (HepG2 [20]): 33.7%
- Activity (HepG2 [21]): 37.8%
- Activity (HepG2 [22]): 4.56%
- Activity (HepG2 [23]): 13.2%
- Activity (HepG2 [24]): 29.1%
- Activity (HepG2 [25]): Dose-dependent effect
- Activity (Hep 3B2 [26]): Dose-dependent effect
- Activity (HepG2 [27]): Dose-dependent effect
- Activity (HepG2 [28]): Dose-dependent effect
- Activity (HepG2 [29]): Active
- Activity (HepG2 [30]): Dose-dependent effect
- Activity (HepG2 [31]): Active
- Activity (Hep 3B2 [32]): 5.04%
- Activity (Hep 3B2 [33]): 7.42%
- Activity (Hep 3B2 [34]): 9.85%
- Activity (Hep 3B2 [35]): 22.8%
- Activity (Hep 3B2 [36]): 19.5%
- Activity (Hep 3B2 [37]): Dose-dependent effect
- Activity (HepG2 [38]): 6.58%
- Activity (HepG2 [39]): 13.1%
- Activity (HepG2 [40]): Dose-dependent effect
- Activity (HepG2 [41]): 14.6%
- Activity (HepG2 [42]): 28.9%
- Activity (HepG2 [43]): 19.9%
- Activity (Hep 3B2 [44]): 69.6%
- Activity (HepG2 [45]): 9.52%
- Activity (HepG2 [46]): 28.2%
- Activity (HepG2 [47]): 65.9%
- Activity (HepG2 [48]): Active
- Activity (Hep 3B2 [49]): Active
- Activity (HepG2 [50]): Dose-dependent effect
- Activity (HepG2 [51]): Dose-dependent effect
- Activity (HepG2 [52]): Dose-dependent effect

SMILES: C=C1C(=O)O[C@H]2[C@H]1[C@@H](OC(=O)/C(C)=C\C)CC1=C[C@H](CC(=C)[C@H]2O)OC1=O
- IC50 (HepG2 [1]): 8.35 µM
- IC50 (Hep 3B2 [2]): 8.16 µM
